This experiment has as its system P388 leukemia ip, CD2F1 mice, survival T/C. In words: NCI In Vivo Anticancer Drug Screen. Data for tumor model P388 Leukemia (intraperitoneal) in CD2F1 (CDF1) mice. The following applies: endpoint: median survival time, higher = longer survival. The gist of the method:
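Mice carrying the transplanted tumor received test compound or vehicle. Survival was recorded in each group, and the value is the treated-group measurement divided by that of the vehicle-treated control group.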

The mark [1] stands for this setting: dose: 50.0 mg/kg/injection, schedule: Q01DX009 (ip), vehicle: Klucel (hydroxypropylcellulose) (HPC).
[2] abbreviates: dose: 100.0 mg/kg/injection, schedule: Q01DX009 (ip), vehicle: Klucel (hydroxypropylcellulose) (HPC).
[3] abbreviates: dose: 200.0 mg/kg/injection, schedule: Q01DX009 (ip), vehicle: Klucel (hydroxypropylcellulose) (HPC).
The mark [4] stands for this setting: dose: 100.0 mg/kg/injection, schedule: Q01DX001 (ip), vehicle: Klucel (hydroxypropylcellulose) (HPC).
[5] abbreviates: dose: 200.0 mg/kg/injection, schedule: Q01DX001 (ip), vehicle: Klucel (hydroxypropylcellulose) (HPC).
The mark [6] stands for this setting: dose: 400.0 mg/kg/injection, schedule: Q01DX001 (ip), vehicle: Klucel (hydroxypropylcellulose) (HPC).
Where [7] appears, read: dose: 50.0 mg/kg/injection, schedule: Q01DX009 (ip), vehicle: saline with Tween-80.
Setting [8] is: dose: 100.0 mg/kg/injection, schedule: Q01DX009 (ip), vehicle: saline with Tween-80.
The mark [9] stands for this setting: dose: 200.0 mg/kg/injection, schedule: Q01DX009 (ip), vehicle: saline with Tween-80.
Where [10] appears, read: dose: 50.0 mg/kg/injection, schedule: Q01DX005 (ip), vehicle: saline with Tween-80.
Setting [11] is: dose: 100.0 mg/kg/injection, schedule: Q01DX005 (ip), vehicle: saline with Tween-80.
[12] abbreviates: dose: 200.0 mg/kg/injection, schedule: Q01DX005 (ip), vehicle: saline with Tween-80.

The structures appear in SMILES notation. Several values for one entry are separate records, joined by “and”; a condition that tells them apart may be missing. Equal values may be shown once. Inconclusive results and toxic doses are left out.

For the molecule `CSc1nc(N)c(C(N)=O)s1`, the T/C is, setting by setting: under setting [1], 100 % of control; under setting [2], 103 % of control; under setting [3], 109 % of control.

Regarding `CCOC(=O)Nc1cc2c(c(N)n1)N=C(CN(C)c1ccccc1)CN2`, the T/C was 112 % of control and 123 % of control (dose: 1.56 mg/kg/injection, schedule: Q01DX009 (ip), vehicle: Klucel (hydroxypropylcellulose) (HPC)); 100 % of control and 111 % of control (dose: 3.12 mg/kg/injection, schedule: Q01DX009 (ip), vehicle: Klucel (hydroxypropylcellulose) (HPC)); 106 % of control and 123 % of control (dose: 6.25 mg/kg/injection, schedule: Q01DX009 (ip), vehicle: Klucel (hydroxypropylcellulose) (HPC)); 124 % of control (dose: 12.5 mg/kg/injection, schedule: Q01DX009 (ip), vehicle: Klucel (hydroxypropylcellulose) (HPC)); 109 % of control and 123 % of control (dose: 25.0 mg/kg/injection, schedule: Q01DX009 (ip), vehicle: Klucel (hydroxypropylcellulose) (HPC)); 98 % of control under setting [1]. In addition, the T/C (dose: 67.0 mg/kg/injection, schedule: Q01DX001 (ip), vehicle: Klucel (hydroxypropylcellulose) (HPC)) is 195 % of control and the T/C under setting [4] was 178 % of control.

In the case of `Cc1cc[c]([Bi]([c]2ccc(C)cc2)[c]2ccc(C)cc2)cc1`, the T/C was 105 % of control (dose: 60.0 mg/kg/injection, schedule: Q01DX005 (ip), vehicle: Klucel (hydroxypropylcellulose) (HPC)) and 96 % of control (dose: 120.0 mg/kg/injection, schedule: Q01DX005 (ip), vehicle: Klucel (hydroxypropylcellulose) (HPC)).

On to `COc1cc(C/C(=C\c2ccc3c(c2)OCO3)[N+](=O)[O-])ccc1OCc1ccccc1`, for which the T/C under setting [4] is 98 % of control, the T/C under setting [5] was 96 % of control and the T/C under setting [6] was 96 % of control.

For `N#CC(C#N)=CNc1ccccc1`, the T/C was 100 % of control under setting [7], 106 % of control under setting [8] and 104 % of control under setting [9].

With `CC12CSC(C)(SC1)SC2`, the T/C reads like this: (dose: 25.0 mg/kg/injection, schedule: Q01DX001 (ip), vehicle: Klucel (hydroxypropylcellulose) (HPC)) 99 % of control; (dose: 50.0 mg/kg/injection, schedule: Q01DX001 (ip), vehicle: Klucel (hydroxypropylcellulose) (HPC)) 99 % of control; under setting [4], 100 % of control; under setting [5], 100 % of control; under setting [6], 95 % of control.

Take `O=C1NN2CCN=C2c2ccncc21`: the T/C by setting is: (dose: 50.0 mg/kg/injection, schedule: Q01DX005 (ip), vehicle: saline) 97 % of control; (dose: 100.0 mg/kg/injection, schedule: Q01DX005 (ip), vehicle: saline) 103 % of control; (dose: 200.0 mg/kg/injection, schedule: Q01DX005 (ip), vehicle: saline) 100 % of control.

`C=C1C(=O)O[C@@H]2C[C@@]3(C)CCC[C@H](C)C3=C[C@H]12`: the T/C (dose: 25.0 mg/kg/injection, schedule: Q01DX009 (ip), vehicle: saline with Tween-80) was 94 % of control; the T/C under setting [7] was 98 % of control; the T/C under setting [8] is 100 % of control; the T/C under setting [9] is 100 % of control.

As to `O=C(Nc1ccc(Sc2ccc(N=Nc3c(O)c(S(=O)(=O)O)cc4cc(S(=O)(=O)O)ccc34)cc2)cc1)c1ccc(N=Nc2c(O)ccc3c(S(=O)(=O)O)cc(S(=O)(=O)O)cc23)cc1`, the T/C was 102 % of control (dose: 50.0 mg/kg/injection, schedule: Q01DX005 (ip), vehicle: Klucel (hydroxypropylcellulose) (HPC)); 97 % of control (dose: 100.0 mg/kg/injection, schedule: Q01DX005 (ip), vehicle: Klucel (hydroxypropylcellulose) (HPC)); 109 % of control (dose: 200.0 mg/kg/injection, schedule: Q01DX005 (ip), vehicle: Klucel (hydroxypropylcellulose) (HPC)).

In the case of `O=[N+]([O-])c1ccc(Cl)nc1`, the T/C reads like this: (dose: 22.0 mg/kg/injection, schedule: Q01DX009 (ip), vehicle: saline with Tween-80) 103 % of control; (dose: 33.0 mg/kg/injection, schedule: Q01DX009 (ip), vehicle: saline with Tween-80) 97 % of control; under setting [7], 91 % of control; (dose: 75.0 mg/kg/injection, schedule: Q01DX009 (ip), vehicle: saline with Tween-80) 99 % of control; (dose: 100.0 mg/kg/injection, schedule: Q04DX003 (ip), vehicle: saline sonified) 100 % of control; (dose: 200.0 mg/kg/injection, schedule: Q04DX003 (ip), vehicle: saline sonified) 95 % of control. Also, under “dose: 400.0 mg/kg/injection, schedule: Q04DX003 (ip), vehicle: saline sonified”, the T/C was 90 % of control.

As to `CC1(C)NNC(=S)NN1`, the T/C is, setting by setting: (dose: 7.5 mg/kg/injection, schedule: Q01DX005 (ip), vehicle: saline with Tween-80) 103 % of control; (dose: 15.0 mg/kg/injection, schedule: Q01DX005 (ip), vehicle: saline with Tween-80) 104 % of control.

Consider `O=C1CSC(=Nc2ccccc2)N1c1ncccn1`, for which the T/C is, setting by setting: under setting [1], 103 % of control; under setting [2], 102 % of control; under setting [3], 102 % of control.

With `N#CC1(C#N)CC1c1ccccc1` (stereo not drawn), the T/C runs as follows: (dose: 60.0 mg/kg/injection, schedule: Q01DX005 (ip), vehicle: saline with Tween-80) 105 % of control; (dose: 120.0 mg/kg/injection, schedule: Q01DX005 (ip), vehicle: saline with Tween-80) 96 % of control; (dose: 240.0 mg/kg/injection, schedule: Q01DX005 (ip), vehicle: saline with Tween-80) 96 % of control.

In the case of `COc1cc(COC(=O)c2ccc(CSc3ccc(Cl)cc3)o2)cc(OC)c1OC`, the T/C is, setting by setting: under setting [10], 99 % of control; under setting [11], 99 % of control.

Regarding `CC(C)CN1CC(=O)N2CCCC(C)N2C(=O)C1` (stereo not drawn), the T/C under setting [10] is 100 % of control, the T/C under setting [11] was 99 % of control and the T/C under setting [12] is 102 % of control.

For `COC(=O)C(CSCc1ccccc1)NC(=O)CCNC(C)=O` (stereo not drawn), the T/C was 97 % of control (dose: 12.5 mg/kg/injection, schedule: Q01DX009 (ip), vehicle: distilled water + Tween-80); 100 % of control (dose: 25.0 mg/kg/injection, schedule: Q01DX009 (ip), vehicle: distilled water + Tween-80); 91 % of control (dose: 50.0 mg/kg/injection, schedule: Q01DX009 (ip), vehicle: distilled water + Tween-80); 92 % of control (dose: 100.0 mg/kg/injection, schedule: Q01DX009 (ip), vehicle: distilled water + Tween-80); 91 % of control (dose: 200.0 mg/kg/injection, schedule: Q01DX009 (ip), vehicle: distilled water + Tween-80).

`COc1ccc2nc(N/N=C/c3cccc(C)n3)cc(C)c2c1`: the T/C by setting is: (dose: 12.5 mg/kg/injection, schedule: Q01DX005 (ip), vehicle: saline with Tween-80) 100 % of control; (dose: 25.0 mg/kg/injection, schedule: Q01DX005 (ip), vehicle: saline with Tween-80) 96 % of control; under setting [10], 94 % of control and 95 % of control; under setting [11], 114 % of control; under setting [12], 116 % of control.

For `COc1ccc2c(c1OC)C(CC(=O)O)N1CCc3cc4c(cc3C1C2)OCO4` (stereo not drawn), the T/C (dose: 0.63 mg/kg/injection, schedule: Q01DX009 (ip), vehicle: distilled water + Tween-80) is 103 % of control; the T/C (dose: 1.25 mg/kg/injection, schedule: Q01DX009 (ip), vehicle: distilled water + Tween-80) is 99 % of control; the T/C (dose: 2.5 mg/kg/injection, schedule: Q01DX009 (ip), vehicle: distilled water + Tween-80) is 106 % of control; the T/C (dose: 5.0 mg/kg/injection, schedule: Q01DX009 (ip), vehicle: distilled water + Tween-80) was 101 % of control; the T/C (dose: 10.0 mg/kg/injection, schedule: Q01DX009 (ip), vehicle: distilled water + Tween-80) was 106 % of control; the T/C (dose: 20.0 mg/kg/injection, schedule: Q01DX009 (ip), vehicle: distilled water + Tween-80) is 94 % of control.

Regarding `CC(=O)SCCCn1c(=O)n(CCCSC(C)=O)c(=O)n(CCCSC(C)=O)c1=O`, the T/C runs as follows: (dose: 50.0 mg/kg/injection, schedule: Q01DX005 (ip), vehicle: saline + Tween-80 + alcohol) 114 % of control; (dose: 100.0 mg/kg/injection, schedule: Q01DX005 (ip), vehicle: saline + Tween-80 + alcohol) 110 % of control; (dose: 200.0 mg/kg/injection, schedule: Q01DX005 (ip), vehicle: saline + Tween-80 + alcohol) 116 % of control.

The values above are taken from PubChem BioAssay AID330 (DTP/NCI, 2004).
